This note sets out measurements from patent publication US20090041719A1, “Method for screening therapeutic agent for glomerular disorder” (priority 2006, published 2009).

For assay [1], the system named is rat unilateral ureteral obstruction release model. Nature of the assay: Rat unilateral ureteral obstruction release model: glomerular and tubulointerstitial lesions, Asc-1+ cells.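 As to Tubulointerstitial lesion: atrophy of tubules associated with dilatation of tubules (score): ± very light + light ++ moderate +++ high change.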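 As to Tubulointerstitial lesion: fibrosis of interstitial tissue (score): ± very light + light ++ moderate +++ high change.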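 As to Tubulointerstitial lesion: thickness of basement membrane (score): ± very light + light ++ moderate +++ high change.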 Format: in vivo, SD rat. From the text: An experimental model was produced in accordance with the method devised and established by Ishibashi (Michio Ishibasi et al., Japanese Journal of Nephrology 42: 248, 2000), using a 8 to 9-week-old male SD rat weighing about 280 g. […] On day 14 after obstruction, the obstruction was released, and the urinary tract was reconstructed using a cuff. That is, 14 days later, the ligated ureteral obstruction part was partially removed, and a 25 gauge polyethylene tube (made by Nippon Sherwood) as a cuff was inserted from the lower normal ureteral stump and placed in the lumen. Next, the cuff was placed also in the expanded upper ureter, and both parts were ligated for fixation with a 7-0 nylon suture to reconstruct the urinary tract. At the same time, the right kidney was removed. The weight was measured after obstruction release, and the blood was collected on days 2, 5, and 7 after release for serum creatinine determination. On day 7, the rat was sacrificed under anesthesia and the left obstruction release kidney was removed. The weight of the removed kidney was measured, and the kidney pathomorphological examination was performed.
The biological effects of the test compound were studied in vivo using the model obtained in the above procedure 1). The test compound in the form of bulk powder was dissolved in sterilized physiologic saline together with gum arabic, where the concentration of the gum arabic was adjusted to 5% and the concentration of the test compound was adjusted to 30 mg/ml. The amount of 30 mg/kg was subcutaneously administered every day. Daily administration was continued for 21 days during 14 days of obstruction and 7 days after obstruction release. For controlled comparison, the solvent of 5% gum arabic was administered alone.
On day 22 from the administration of the test compound, the rat was sacrificed under anesthesia, and the left obstruction release kidney was removed and neutral formalin fixed. The fixed renal tissue embedded in paraffin was sliced into 4-micrometer-thick pieces for examination.
The tissue section was observed under a microscope in order to count the number of glomeruli and the number of glomeruli having a lesion (expansion of a tubular pole associated with swollen Bowman's capsule epithelial cells or hypertrophy of a Bowman's capsule basal membrane) in the field of view, and the number of glomeruli having the lesion (referred to as “lesioned glomerulus”) per 50 glomeruli was calculated.
As for the effectiveness to improve of glomerular lesions, when the number of lesioned glomeruli per 50 glomeruli was reduced to less than or equal to half the average number of those of the control group, it was determined as improved.
An affinity-purified anti-rat Asc-1 polyclonal antibody (rabbit) was prepared as follows: that is, in order to prepare an anti-Asc-1 peptide polyclonal antibody (rabbit), an oligopeptide (PSPLPITDKPLKTQC (SEQ. ID NO: 4)) corresponding to amino acid residues of 517-530 of Asc-1 was synthesized (see J Biol Chem (2000); 275: 9690-9698), keyhole limpet hemocyanine was bound to the C-terminal cysteine as an adjuvant, and […] was immunized therewith. The serum was collected on days 7 and 14 from the immunization. The serum was concentrated by means of an adsorption-dissociation operation using an affinity column to which an oligopeptide corresponding to amino acid residues of 517-530 of Asc-1 was bound in order to obtain an affinity-purified antibody having a protein content of 0.5 mg/ml. As for immunopathological examination, paraffin rat […] diluted with PBS to the optimal concentration was used.
The immune tissue staining was performed based on the protocol of Ventana HX system bench mark (Ventana Japan K.K., Tokyo) including the automated immunostaining device manufactured by Ventana Japan K.K. After deparaffinization, the tissue section was heat-treated at 100° C. for 1 hour. […]

Another assay concerns 4F2hc. Kind of assay: 4F2hc on large-cell fraction of LPS-stimulated THP-1, peak value by FACScan. Format: cell-based, human. As to the method:
The same procedures as in Experimental Example 2 were taken except the following conditions: human leukemia culture cell line THP-1 was used instead of the human peripheral blood mononuclear cells; the final addition concentration of the test compound (6-2) was set to 100 nM, and the final addition concentration of the test compound (7-3) was set to 1000 nM; and fetal bovine serum was used instead of the human AB serum. The peak value of HAT expressed on the fraction of large-cells in human leukemia culture cell strain THP-1, compared with those not stimulated with LPS, was measured. As a control, the one with no test-compound addition was used, and the peak value of HAT was measured by FACScan using a commercially available cell fix/cell membrane infiltration kit (trade name: BD Cytofix/Cytopem™ Kit, catalog No. 554714, BD Bioscience).

[2] abbreviates: group average ± standard deviation.
Setting [3] is: individual animal, 30 mg/kg s.c. daily for 21 days, 30 mg/kg.
Where [4] appears, read: individual animal, points: ± 0.5, + 1, ++ 2, +++ 3.

Values joined by “and” are separate entries in the source; they are usually repeats but may differ in a detail not shown here. Identical values can stand only once.

With `O=C1CCC(F)(C(=O)OCc2ccccc2)O1` (stereo not drawn) [Compound (6-2)], in assay [1] (setting [2]), the “Glomerular lesion: number of lesioned glomeruli per 50 glomeruli, expansion of tubular pole associated with swollen Bowman's capsule epithelial cells” value is 3 ± 2 per 50 glomeruli; the “Glomerular lesion: number of lesioned glomeruli per 50 glomeruli, hypertrophy of Bowman's capsule basal membrane” value is 7 ± 2 per 50 glomeruli; the “Number of Asc-1+ cells per 50 glomeruli” value stood at 8.01 ± 1.96 per 50 glomeruli; the “Tubulointerstitial lesion: atrophy of tubules associated with dilatation of tubules (score)” value is 0.90 ± 0.3. In addition, in assay [1] (setting [2]), the “Tubulointerstitial lesion: fibrosis of interstitial tissue (score)” value was determined as 1.5 ± 0.6, the “Tubulointerstitial lesion: thickness of basement membrane (score)” value was 1.5 ± 0.6 and the “Tubulointerstitial lesion: total score” value was 3.9 ± 1.0. In addition, in assay [1] (setting [3]), the “Glomerular lesion: number of lesioned glomeruli per 50 glomeruli, expansion of tubular pole associated with swollen Bowman's capsule epithelial cells” value is 2 per 50 glomeruli (2×) and 5 per 50 glomeruli and 1 per 50 glomeruli; the “Glomerular lesion: number of lesioned glomeruli per 50 glomeruli, hypertrophy of Bowman's capsule basal membrane” value was 6 per 50 glomeruli and 9 per 50 glomeruli and 5 per 50 glomeruli and 8 per 50 glomeruli; the “Number of Asc-1+ cells per 50 glomeruli” value was 9.40 per 50 glomeruli and 9.05 per 50 glomeruli and 5.12 per 50 glomeruli and 8.47 per 50 glomeruli. Further, in assay [1] (individual animal, Yes = lesioned glomeruli per 50 glomeruli reduced to less than or equal to half the control average), the “Improvement of glomerular lesion” value is “Yes (3×) and No”. The “Improvement of tubulointerstitial lesion” value in assay [1] (individual animal, Yes = reduced to less than or equal to half the control average) is reported as “No”. In addition, in assay [1] (setting [4]), the “Tubulointerstitial lesion: atrophy of tubules associated with dilatation of tubules (score)” value was 1 (3×) and 0.5; the “Tubulointerstitial lesion: fibrosis of interstitial tissue (score)” value is 1 (2×) and 2 (2×); the “Tubulointerstitial lesion: thickness of basement membrane (score)” value was 1 (2×) and 2 (2×). The “Tubulointerstitial lesion: total score” value in assay [1] (individual animal, sum of the three scores) was 3 (2×) and 4.5 and 5. In assay [1] (summary of Table 5), the “glomerular lesion (in words)” value was “selectively reduced” and the “uriniferous tubule lesion (in words)” value is on record as “not reduced”. Further, the “Asc-1 positive cells in the glomeruli (in words)” value in assay [1] (versus control group) is “increased more significantly than in the control group”. Moreover, in the assay with 4F2hc (THP-1 + LPS 80 μg/ml, fetal bovine serum, test compound 100 nM, solvent control 12), the “Change in HAT expressed on large-cell fraction of THP-1 (peak value by FACScan), 4F2hc” value was 25. The “amount of 4F2hc in the heavy chain of HAT (in words)” value in the assay with 4F2hc (THP-1 + LPS, summary of Table 3) is “remarkably changed”.
